Measured values published in paper PMC11129349, “Synthesis and Evaluation of a Novel PET Radioligand for Imaging Glutaminyl Cyclase Activity as a Biomarker for Detecting Alzheimer’s Disease” (ACS Sensors, 2024).

Target: T1, glutaminyl cyclase (QC; human recombinant glutaminyl peptide cyclotransferase) (Homo sapiens, UniProt Q16769)
T1 construct: gene QPCT
Assay: PGPEP1-coupled fluorescence assay with H-Gln-AMC substrate, recombinant human QC
Format: biochemical

T1 sequence (Q16769 29-361): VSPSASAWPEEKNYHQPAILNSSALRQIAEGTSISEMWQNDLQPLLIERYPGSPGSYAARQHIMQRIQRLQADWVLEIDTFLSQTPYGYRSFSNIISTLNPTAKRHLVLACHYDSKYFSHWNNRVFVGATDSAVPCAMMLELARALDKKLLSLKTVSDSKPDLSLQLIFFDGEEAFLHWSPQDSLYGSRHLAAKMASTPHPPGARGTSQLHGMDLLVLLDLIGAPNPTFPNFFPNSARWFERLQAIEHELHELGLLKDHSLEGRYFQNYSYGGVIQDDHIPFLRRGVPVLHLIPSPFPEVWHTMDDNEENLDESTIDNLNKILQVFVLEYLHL

IC50: 56.3 nM
SMILES: O=C1NC[C@H](c2ccc(OCCCF)cc2)N1c1ccc2[nH]cnc2c1 [compound 8, S-[19F]PB0822]
